Patent publication US7141585B2 (dated 2006)

melting point: 105.8 to 107.5 °C
SMILES: CCOC(=O)c1c(Cc2cc(Cl)cc(Cl)c2)c(C)nn1CCO
